Data taken from ChEMBL document CHEMBL5052818, “Aminopyrimidine derivatives as ctps1 inhibitors” (2019).

experiment: Inhibition of C-terminal FLAG-His-tagged full length human CTPS1 measured after 60 mins by ADP-Glo assay

Structure (SMILES)	IC50
CC(C)(C(=O)Nc1ccc(-c2cccc(C(F)(F)F)c2)cc1)c1ccnc(NS(=O)(=O)C2CC2)n1	> 1000 nM
CCC(C(=O)Nc1ccc(-c2cncc(OCC(F)(F)F)c2)cc1F)c1ccnc(NS(=O)(=O)C2CC2)n1 (centres undefined)	> 100 nM
CC(C)(C(=O)Nc1ccc(-c2cnccn2)cc1F)c1ccnc(NS(=O)(=O)C2CC2)n1	> 1000 nM
CCOc1cncc(-c2ccc(NC(=O)C(C)(C)c3ccnc(NS(C)(=O)=O)n3)nc2)n1	> 100 nM
CC(C)(C(=O)Nc1ccc(-c2cncnc2)cc1)c1ccnc(NS(=O)(=O)C2CC2)n1	> 1000 nM
O=C(Cc1nc(NS(=O)(=O)C2CC2)ncc1F)Nc1ccc(-c2cccnc2)cc1	> 1000 nM
Cc1cc(-c2cncc(C(F)(F)F)n2)ccc1NC(=O)C(C)(C)c1ccnc(NS(C)(=O)=O)n1	> 100 nM
CCOc1cncc(-c2ccc(NC(=O)C(C)(C)c3ccnc(NS(=O)(=O)C4CC4)n3)cc2)c1	> 100 nM
CCOc1cncc(-c2ccc(NC(=O)C(C)(C)c3ccnc(NS(=O)(=O)C4CCC4)n3)cc2)n1	> 100 nM
O=C(Cc1ccnc(NS(=O)(=O)C2CC2)n1)Nc1ccc(-c2ccccc2)cc1	> 1000 nM
CC(C)(C(=O)Nc1ccc(-c2cccnc2)cn1)c1ccnc(NS(=O)(=O)C2CC2)n1	> 1000 nM
CCOc1cncc(-c2cc(C)c(NC(=O)C(C)(C)c3ccnc(NS(=O)(=O)C4CC4)n3)cc2F)n1	> 100 nM
CCOc1cncc(-c2ccc(NC(=O)C(C)(C)c3ccnc(NS(=O)(=O)C4CCC4)n3)c(C)c2)n1	> 100 nM

Next, values leading:

IC50	Structure (SMILES)
≤ 100 nM	CC(C)(C(=O)Nc1ccc(-c2cncc(C(F)(F)F)n2)cc1F)c1ccnc(NS(=O)(=O)C2CC2)n1
≤ 100 nM	CCOc1cncc(-c2ccc(NC(=O)C(CC)(CC)c3ccnc(NS(=O)(=O)C4CC4)n3)cc2)n1
≤ 100 nM	CC(C)Oc1cncc(-c2ccc(NC(=O)Cc3ccnc(NS(=O)(=O)C4CC4)n3)cc2)n1
> 100 nM	CCS(=O)(=O)Nc1nccc(C(C)(C)C(=O)Nc2ccc(-c3cncc(C(F)(F)F)n3)cc2)n1
> 100 nM	O=C(Cc1ccnc(NS(=O)(=O)C2CC2)n1)Nc1ccc(-c2cccnc2)cc1
≤ 100 nM	CC(C)(C(=O)Nc1ccc(-c2cncc(C(F)(F)F)n2)cn1)c1ccnc(NS(=O)(=O)C2CC2)n1
≤ 100 nM	CC(C)(C(=O)Nc1ccc(-c2cncc(C(F)(F)F)n2)cc1)c1ccnc(NS(=O)(=O)C2CC2)n1
≤ 100 nM	CCOc1cncc(-c2ccc(NC(=O)C(C)(C)c3ccnc(NS(=O)(=O)C4CC4)n3)c(OC)c2)n1
≤ 100 nM	CC(C)(C(=O)Nc1ccc(-c2cncc(OC(F)F)c2)cc1)c1ccnc(NS(=O)(=O)C2CC2)n1
≤ 100 nM	CCOc1cncc(-c2cc(F)c(NC(=O)C(C)(C)c3ccnc(NS(=O)(=O)C4CC4)n3)c(F)c2)n1
≤ 100 nM	CCC(C(=O)Nc1ccc(-c2cncc(OC(C)C)n2)cc1F)c1ccnc(NS(=O)(=O)C2CC2)n1 (centres undefined)
